According to publication PMC10094617, “Iron(III) Complexes with Non-Steroidal Anti-Inflammatory Drugs: Structure, Antioxidant and Anticholinergic Activity, and Interaction with Biomolecules” (International Journal of Molecular Sciences, 2023):

Legend:
[1] = Competition with DMSO for hydroxyl radicals; assay type: biochemical; conditions: compound 0.1 mM; 30 min, 37 °C, pH 7.4
Method: (§1) The antioxidant activity of complexes 1–3 was evaluated via their ability to scavenge the free radicals DPPH, hydroxyl, and ABTS. Each experiment was performed in triplicate and the standard deviation of absorbance was less than 10% of the mean.
Competition of the tested compounds with DMSO for hydroxyl radicals: The hydroxyl radicals generated by the Fe^3+/ascorbic acid system were detected according to Nash by the determination of formaldehyde produced from the oxidation of DMSO [155]. The reaction mixture contained EDTA (0.1 mM), Fe^3+ (167 μM), DMSO (33 mM) in phosphate buffer (50 mM, pH 7.4), complexes 1–3 (concentration 0.1 mM), and ascorbic acid (10 mM). After a 30-min incubation at 37 °C, the reaction was stopped with CCl3COOH (17% w/v) and the absorbance at λ = 412 nm was measured. Trolox was used as a reference compound. The competition of the compounds with DMSO for •OH, generated by the Fe^3+/ascorbic acid system, expressed as the percentage of inhibition of formaldehyde production, was used for the evaluation of their hydroxyl radical-scavenging activity (OH%).

[2] = target: T1, electric eel acetylcholinesterase (eeAChE) (Electrophorus electricus, UniProt O42275); experiment: Inhibition of acetylcholinesterase (modified Ellman's method); assay type: biochemical; conditions: 10^−3 M of the compound; pH 7.4, 37 °C
T1 construct: purchased J&K Scientific Co. (Beijing, China)
Method: In the study of cholinesterase inhibitors, the inhibitory effect of the compounds (the NSAIDs and their complexes 1–3) against AChE and BuChE was examined using a modified methodology based on Ellman’s method.
The ability of the compounds to inhibit AChE and BuChE was evaluated using UV-vis spectroscopy. All the assays were carried out in a 0.1M NaH2PO4/Na2HPO4 buffer at a pH = 7.4. Enzyme solutions were prepared with 2.0 U/mL for AChE and 3.0 U/mL for BuChE. A reaction mixture containing 20 μL of phosphate buffer, 100 μL of DTNB (1-mM), and 40 μL of the enzyme (AChE and BuChE) was incubated with 20 μL of the compounds at various concentrations at 37 °C for 15 min. The reaction was started by the addition of the substrate (20-μL) of ATCI or BTCI solution (1-mM), respectively, and incubation for additional 3 min.
The enzyme activity was determined by measuring the increase in absorbance at 2-min intervals at 412 nm at 37 °C (ε = 14,150 M^−1cm^−1).
The rate of inhibition of each enzyme by the compounds was calculated according to the following expression:(1) I%=(1−VB/VA)×100 where VB and VA indicate the absorbance measured for ChEs in the presence and absence of inhibitors, respectively. The results are expressed as the average of three repetitions of the tests performed and the standard deviation was less than 3% of the mean. The selectivity index (SI), defined as IC50 BuChE/IC50 AChE, was also calculated. Neostigmine methyl sulfate was used as the appropriate standard.

DPPH radical scavenging = assay type: biochemical; conditions: compound 0.1 mM; for DPPH% (DPPH scavenging ability), 20 min / DPPH% (DPPH scavenging ability), 60 min: ethanol
Method: as §1
Ethanol was also used as a control solution. The absorbance at 517 nm was recorded at room temperature, two times, after 20 and 60 min, in order to examine the time-dependence of the DPPH-scavenging activity. The DPPH-scavenging activity of the compounds was expressed as the percentage reduction of the absorbance values of the initial DPPH solution (RA%). The compounds NDGA and BHT were used as reference compounds.

[3] = target: T2, bovine serum albumin (BSA) (Bos taurus, UniProt P02769); experiment: BSA fluorescence emission quenching (albumin binding); conditions: for ΔI/Io (%) quenching of BSA fluorescence: BSA 3 μM, λex 295 nm, λem 343 nm; for K albumin-binding constant (BSA): Scatchard equation; for Kq albumin-quenching constant (BSA): Stern–Volmer, τo = 10^−8 s; for relative BSA fluorescence emission intensity (I/Io, %) remaining: λem,max = 343 nm, up to, % of the initial BSA fluorescence
T2 construct: purchased Sigma-Aldrich Co. (St. Louis, MO, USA)
Method: (§2) The albumin-binding study for complexes 1–3 was performed via fluorescence emission quenching experiments using BSA (3 μM) or HSA (3 μM), respectively, in a buffer solution (containing 15-mM trisodium citrate and […] at pH 7.0). The quenching of the emission intensity of tryptophan residues of BSA at 343 nm or HSA at 351 nm was monitored using complexes 1–3 as quenchers with increasing concentrations. The fluorescence emission spectra were recorded in the range of 300–500 nm, with an excitation wavelength of 295 nm. The quantitative studies of the serum albumin fluorescence spectra were performed after correction by subtracting the spectra of the compounds.
(§3) The extent of the inner-filter effect can be roughly estimated with the following formula:(2) Icorr=Imeas×10^ε(λexc)cd/2×10^ε(λem)cd/2 where Icorr = corrected intensity, Imeas = the measured intensity, c = the concentration of the quencher, d = the cuvette (1 cm), ε(λexc), and ε(λem) = the ε of the quencher at the excitation and the emission wavelength, respectively, as calculated from the UV-vis spectra of the complexes.
(§4) The Stern–Volmer and Scatchard graphs are used in order to study the interaction of a quencher with serum albumins. The Stern–Volmer quenching equation is used:(3) Io/I=1+Kq×τ0×[Q]=1+KSV×[Q] where Io = the initial tryptophan fluorescence intensity of SA, I = the tryptophan fluorescence intensity of SA after the addition of the quencher, Kq = the quenching constants of SA, KSV = the Stern–Volmer constant, τo = the average lifetime of SA without the quencher, and [Q] = the concentration of the quencher. The value of KSV (M^−1) can be obtained by the slope of the diagram Io/I versus [Q]. Taking τo = 10^−8 s as the fluorescence lifetime of tryptophan in SA, the value of Kq (M^−1s^−1) is calculated from the equation:(4) KSV=Kq×τo and from the Scatchard equation [130]:(5) ΔI/Io/[Q]=n×K−K×ΔI/Io where n is the number of binding sites per albumin and K is the SA-binding constant, K (in M^−1) is calculated from the slope in plots (ΔI/Io)/[Q] versus (ΔI/Io), and n is given by the ratio of y-intercept to the slope.

[4] = target: T3, human serum albumin (HSA) (Homo sapiens, UniProt P02768); experiment: HSA fluorescence emission quenching (albumin binding); conditions: for ΔI/Io (%) quenching of HSA fluorescence: HSA 3 μM, λex 295 nm, λem 351 nm; for K albumin-binding constant (HSA): Scatchard equation; for Kq albumin-quenching constant (HSA): Stern–Volmer, τo = 10^−8 s; for relative HSA fluorescence emission intensity (I/Io, %) remaining: λem,max = 351 nm, up to, % of the initial HSA fluorescence
T3 construct: purchased Sigma-Aldrich Co. (St. Louis, MO, USA)
Method: as §2, §3, §4

[5] = Solubility of the complexes; assay type: physicochemical

T3 sequence (P02768 25-609): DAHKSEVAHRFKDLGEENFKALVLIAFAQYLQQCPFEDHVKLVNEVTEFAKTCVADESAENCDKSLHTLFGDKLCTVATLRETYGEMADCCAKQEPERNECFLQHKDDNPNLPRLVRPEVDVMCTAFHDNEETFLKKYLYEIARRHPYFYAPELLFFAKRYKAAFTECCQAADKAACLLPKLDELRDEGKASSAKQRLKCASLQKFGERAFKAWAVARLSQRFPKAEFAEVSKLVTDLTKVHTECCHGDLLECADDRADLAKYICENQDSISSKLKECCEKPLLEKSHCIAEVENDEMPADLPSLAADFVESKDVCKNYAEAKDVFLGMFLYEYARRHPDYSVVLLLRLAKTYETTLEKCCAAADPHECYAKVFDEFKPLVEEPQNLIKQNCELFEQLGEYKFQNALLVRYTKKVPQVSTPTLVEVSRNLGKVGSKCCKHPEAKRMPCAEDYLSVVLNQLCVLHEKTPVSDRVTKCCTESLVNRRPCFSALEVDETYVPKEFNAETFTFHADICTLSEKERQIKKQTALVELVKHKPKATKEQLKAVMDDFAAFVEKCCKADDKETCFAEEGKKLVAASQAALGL
T2 sequence (P02769 25-607): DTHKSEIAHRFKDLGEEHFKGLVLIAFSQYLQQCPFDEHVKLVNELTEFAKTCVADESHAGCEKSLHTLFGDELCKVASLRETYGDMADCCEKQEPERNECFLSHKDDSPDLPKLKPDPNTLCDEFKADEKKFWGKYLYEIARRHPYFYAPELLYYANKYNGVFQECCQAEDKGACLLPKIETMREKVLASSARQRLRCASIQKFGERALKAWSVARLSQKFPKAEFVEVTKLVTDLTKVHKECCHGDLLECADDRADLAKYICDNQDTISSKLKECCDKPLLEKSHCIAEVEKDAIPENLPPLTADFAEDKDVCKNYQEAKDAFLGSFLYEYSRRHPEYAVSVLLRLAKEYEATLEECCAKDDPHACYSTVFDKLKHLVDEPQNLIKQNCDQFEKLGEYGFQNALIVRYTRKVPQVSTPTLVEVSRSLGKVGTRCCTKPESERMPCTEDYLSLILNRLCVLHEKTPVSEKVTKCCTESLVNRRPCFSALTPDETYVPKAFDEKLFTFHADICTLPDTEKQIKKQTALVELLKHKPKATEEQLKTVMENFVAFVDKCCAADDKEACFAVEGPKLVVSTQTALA
T1 sequence (O42275 24-633): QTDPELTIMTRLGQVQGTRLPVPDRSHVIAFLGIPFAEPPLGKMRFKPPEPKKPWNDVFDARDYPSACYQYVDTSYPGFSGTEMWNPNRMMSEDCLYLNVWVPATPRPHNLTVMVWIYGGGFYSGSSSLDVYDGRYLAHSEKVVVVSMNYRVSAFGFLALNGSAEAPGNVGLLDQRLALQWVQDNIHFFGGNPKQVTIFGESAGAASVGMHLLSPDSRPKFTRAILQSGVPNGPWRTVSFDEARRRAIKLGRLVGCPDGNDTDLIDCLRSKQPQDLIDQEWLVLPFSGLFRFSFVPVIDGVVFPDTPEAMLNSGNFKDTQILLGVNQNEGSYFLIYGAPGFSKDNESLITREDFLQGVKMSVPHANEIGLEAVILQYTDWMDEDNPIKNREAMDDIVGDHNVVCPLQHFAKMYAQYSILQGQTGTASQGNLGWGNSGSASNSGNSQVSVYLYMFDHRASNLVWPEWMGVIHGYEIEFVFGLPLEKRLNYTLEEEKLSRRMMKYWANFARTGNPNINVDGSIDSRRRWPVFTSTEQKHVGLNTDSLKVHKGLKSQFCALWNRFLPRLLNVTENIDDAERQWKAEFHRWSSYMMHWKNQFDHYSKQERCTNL

## [Fe3O(dicl)6(py)3]Cl∙py [Complex 2]
[1]
  OH% (competition % with DMSO for hydroxyl radical): 87.89 ± 0.84%
[2]
  AChE (I%) inhibition rate: 3.56 ± 0.11%
DPPH radical scavenging
  DPPH% (DPPH scavenging ability), 20 min: 23.12 ± 0.37%
  DPPH% (DPPH scavenging ability), 60 min: 22.97 ± 0.17%
DPPH radical scavenging; 20 min and 60 min
  DPPH% (span over 20-min and 60-min treatments): 22.97–23.12%
[3]
  ΔI/Io (%) quenching of BSA fluorescence: 92.5%
  K albumin-binding constant (BSA): 6.09 (±0.31) × 10^5 M^−1
  Kq albumin-quenching constant (BSA): 8.70 (±0.43) × 10^13 M^−1s^−1
  relative BSA fluorescence emission intensity (I/Io, %) remaining: 7.5%
[4]
  ΔI/Io (%) quenching of HSA fluorescence: 99.4%
  K albumin-binding constant (HSA): 3.87 (±0.42) × 10^5 M^−1
  Kq albumin-quenching constant (HSA): 6.09 (±0.30) × 10^13 M^−1s^−1
  relative HSA fluorescence emission intensity (I/Io, %) remaining: 0.6%
[5]
  solubility: Soluble in DMSO

## [Fe3O(dicl)6(MeOH)3][FeCl4]·Hdicl·1.5MeOH∙H2O [Complex 3]
[1]
  OH% (competition % with DMSO for hydroxyl radical): 94.31 ± 0.78%
[2]
  AChE (I%) inhibition rate: 3.55 ± 1.26%
DPPH radical scavenging
  DPPH% (DPPH scavenging ability), 20 min: 18.94 ± 0.73%
  DPPH% (DPPH scavenging ability), 60 min: 18.98 ± 0.74%
[3]
  ΔI/Io (%) quenching of BSA fluorescence: 97.6%
  K albumin-binding constant (BSA): 5.44 (±0.05) × 10^5 M^−1
  Kq albumin-quenching constant (BSA): 8.45 (±0.31) × 10^13 M^−1s^−1
  relative BSA fluorescence emission intensity (I/Io, %) remaining: 2.4%
[4]
  ΔI/Io (%) quenching of HSA fluorescence: 96.5%
  K albumin-binding constant (HSA): 2.42 (±0.17) × 10^5 M^−1
  Kq albumin-quenching constant (HSA): 5.22 (±0.35) × 10^13 M^−1s^−1
  relative HSA fluorescence emission intensity (I/Io, %) remaining: 3.5%
[5]
  solubility: Soluble in DMSO
